Experimental data taken from publication PMC6801902, “Directed Evolution of Clostridium thermocellum β-Glucosidase A Towards Enhanced Thermostability” (International Journal of Molecular Sciences, 2019).

How the values were obtained:
[1] = target: C. thermocellum BglA (β-glucosidase A, Clo1313_2020) (Acetivibrio thermocellus, UniProt P26208); experiment: continuous p-nitrophenol release at OD405, nonlinear fit (GraphPad Prism); type: biochemical; settings: 50 mM citrate buffer pH 6.1, 60 °C, 0-25 mM pNPG, 13 nM enzyme; read-out: Wild Type
C. thermocellum BglA (β-glucosidase A, Clo1313_2020) (Acetivibrio thermocellus, UniProt P26208), sequence (P26208 whole entry): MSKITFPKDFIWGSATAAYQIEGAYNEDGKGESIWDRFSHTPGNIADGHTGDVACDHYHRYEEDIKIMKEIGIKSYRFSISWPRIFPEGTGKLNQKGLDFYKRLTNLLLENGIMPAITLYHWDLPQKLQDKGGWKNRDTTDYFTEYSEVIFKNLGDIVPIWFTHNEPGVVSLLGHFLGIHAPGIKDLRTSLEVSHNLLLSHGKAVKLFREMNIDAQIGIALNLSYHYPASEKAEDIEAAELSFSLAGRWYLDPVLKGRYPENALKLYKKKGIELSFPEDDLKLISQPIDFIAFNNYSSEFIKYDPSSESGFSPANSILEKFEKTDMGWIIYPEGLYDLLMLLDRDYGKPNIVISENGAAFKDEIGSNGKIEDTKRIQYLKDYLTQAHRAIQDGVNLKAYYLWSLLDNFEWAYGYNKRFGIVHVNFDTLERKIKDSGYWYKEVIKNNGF
Description: (§1) continuous p-nitrophenol release at OD405, nonlinear fit (GraphPad Prism) on C. thermocellum BglA (β-glucosidase A, Clo1313_2020)

[2] = target: C. thermocellum BglA (β-glucosidase A, Clo1313_2020) (Acetivibrio thermocellus, UniProt P26208, A17S/K268N, form not given); experiment: as above; type: biochemical; settings: 50 mM citrate buffer pH 6.1, 60 °C, 0-25 mM pNPG, 13 nM enzyme; thermostable mutant Mut 1
C. thermocellum BglA (β-glucosidase A, Clo1313_2020) (Acetivibrio thermocellus, UniProt P26208, A17S/K268N, form not given), sequence (P26208 whole entry A17S/K268N, form open): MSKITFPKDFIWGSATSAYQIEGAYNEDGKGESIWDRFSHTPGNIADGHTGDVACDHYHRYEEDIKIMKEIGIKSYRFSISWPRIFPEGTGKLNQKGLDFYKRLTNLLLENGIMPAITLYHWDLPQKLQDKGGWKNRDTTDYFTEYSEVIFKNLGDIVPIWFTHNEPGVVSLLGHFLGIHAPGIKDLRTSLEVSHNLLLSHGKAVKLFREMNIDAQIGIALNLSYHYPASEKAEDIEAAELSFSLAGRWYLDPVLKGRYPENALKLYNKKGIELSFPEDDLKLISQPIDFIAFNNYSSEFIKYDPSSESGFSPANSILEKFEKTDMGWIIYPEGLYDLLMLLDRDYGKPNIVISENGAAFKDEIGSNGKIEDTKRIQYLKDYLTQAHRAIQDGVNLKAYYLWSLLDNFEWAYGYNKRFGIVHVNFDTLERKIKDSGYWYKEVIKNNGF
Description: as §1

Km [1]: 6.7 ± 1.11 mM
Km [2]: 5 ± 0.59 mM
Structure (SMILES): O=[N+]([O-])c1ccc(O[C@@H]2O[C@H](CO)[C@@H](O)[C@H](O)[C@H]2O)cc1 [pNPG, p-nitrophenyl-β-D-glucopyranoside]
